Measured values published in US20230190924A1, “ANTIGEN OF ALLERGY AND EPITOPE THEREOF” (HOYU CO., LTD., priority 2017, published 2023).

Tested on: IgE antibodies from patients
Test: Epitope mapping (2) overlapping (10-amino-acid peptides) and (3) alanine scanning on peptide arrays
Assay type: binding, human
Details: for binding to IgE antibodies from patients, sequence comprising a region amino-terminally adjacent to the epitope / binding to IgE antibodies from patients, sequence comprising a region carboxy-terminally adjacent to the epitope: overlapping peptides with flanking sequence; for region within the epitope important for binding to IgE antibodies from patients: procedures (B) overlapping and (C) alanine scanning
Protocol: On the basis of the sequences (SEQ ID NOs: 272-295 for vitellogenin-2 precursor, SEQ ID NOs: 296-303 for vitellogenin-3, SEQ ID NOs: 304-311 for apolipoprotein B precursor, and SEQ ID NOs: 312-318 for vitellogenin-1 or lipovitellin-1) of the peptides bound to an IgE antibody in serum in a patient-specific manner as described above in (A), a library of overlapping peptide fragments (length: 10 amino acids) was prepared using the sequences of the peptides and sequences in which sequences were added so as to flank each peptide in the amino acid sequences of allergen components (amino acid sequences of SEQ ID NO: 59, 106 or 262 for vitellogenin-2 precursor, SEQ ID NO: 2, 13 or 47 for vitellogenin-3, SEQ ID NO: 152, 237 or 251 for apolipoprotein B, and SEQ ID NO: 18 for vitellogenin-1 or lipovitellin-1) comprising the sequences of the peptide to carry out epitope mapping.
The peptides to be synthesized were shifted by one amino acid.
The library was prepared by the same procedure as described above in (A), and the presence or absence of binding of an IgE antibody present in the serum of a patient and a non-egg-allergic subject to each peptide fragment was measured by the same technique as described above. Amino acids at positions where the binding activity against IgE antibodies from patients were lost or decreased in the peptides shifted by one amino acid while binding activity against IgE antibodies from non-egg-allergic subjects arose were confirmed as amino acids adversely affecting the specificity of binding to IgE antibodies.
Chemiluminescence intensity in images obtained by measurement was converted into a numeric value in the same manner as in (A) using ImageQuant TL (GE Healthcare). Numeric values determined from images obtained as a result of using only anti-human IgE antibody-HRP antibody without carrying out the procedures (2) and (3) described above in the subsection titled (3) Spotting of cellulose-bound peptide solution were […] numeric values determined from images obtained from results about the serum of 6 patients. It was determined that a peptide having the resulting value larger than 0 had no binding activity against IgE antibodies when having less than 20% of values obtained using the sequences (amino acid sequences of SEQ ID NO: 59, 106 or 262 for vitellogenin-2, SEQ ID NO: 2, 13 or 47 for vitellogenin-3, SEQ ID NO: 152, 237 or 251 for apolipoprotein B, and SEQ ID NO: 18 for vitellogenin-1 or lipovitellin-1) serving as the basis of overlapping, had binding activity, albeit poor, against IgE antibodies when having 20% or more and less than 50% thereof, had binding activity, albeit somewhat poor, against IgE antibodies when having 50% or more and less than 70% thereof, had almost equivalent binding activity against IgE antibodies when having 70% or more and less than 90% thereof, and had equivalent or good binding activity against IgE antibodies and thus had remaining binding activity against IgE antibodies when having 90% or more thereof.
From the amino acid sequences identified above in (A), a library of peptide fragments in which N-terminal amino acids were substituted one by one by alanine according to a technique called alanine scanning (Non Patent Literature 1) was prepared by the same technique as described above. The presence or absence of binding of an IgE antibody present in the serum of a patient and a non-egg-allergic subject to each peptide fragment was measured by the same technique as described above. Amino acids at positions where the binding activity against IgE antibodies from patients were lost or decreased by the substitution by alanine while binding activity against IgE antibodies from non-egg-allergic subjects arose were confirmed as amino acids important for exertion of original antigenicity, or amino acids influencing exertion of original antigenicity.

| Substance | binding to IgE antibodies from patients, sequence comprising a region amino-terminally adjacent to the epitope | region within the epitope important for binding to IgE antibodies from patients | further results |
| --- | --- | --- | --- |
| SEQ ID NO: 479: sequence comprising a region amino-terminally adjacent to epitope 20 (KSAGEATNLK; epitope) | binding to IgE antibodies from patients | – | – |
| SEQ ID NO: 412: region in epitope 10 (MKTVVEPA; epitope) | – | important for binding | – |
| SEQ ID NO: 426: sequence comprising a region carboxy-terminally adjacent to epitope 11 (LKNLKIETNP; epitope) | – | – | binding to IgE antibodies from patients, sequence comprising a region carboxy-terminally adjacent to the epitope: binding to IgE antibodies from patients |
| SEQ ID NO: 360: sequence comprising a region carboxy-terminally adjacent to epitope 6 (PSAIISKLMA; epitope) | – | – | binding to IgE antibodies from patients, sequence comprising a region carboxy-terminally adjacent to the epitope: binding to IgE antibodies from patients |
| SEQ ID NO: 356: region in epitope 5 (KLDS; epitope) | – | important for binding | – |
| SEQ ID NO: 613: sequence comprising a region amino-terminally adjacent to epitope 39 (ANELLDR; epitope) | binding to IgE antibodies from patients | – | – |
| SEQ ID NO: 555: region in epitope 33 (AEKYDLKN; epitope) | – | important for binding | – |
| SEQ ID NO: 319: sequence comprising a region amino-terminally adjacent to epitope 1 (LKVRSPQVEE; epitope) | binding to IgE antibodies from patients | – | – |
| SEQ ID NO: 649: region in epitope 42 (DTLQNVLQ; epitope) | – | important for binding | – |
| SEQ ID NO: 674: region in epitope 47 (YSDVPIEK; epitope) | – | important for binding | – |
| SEQ ID NO: 381: sequence comprising a region carboxy-terminally adjacent to epitope 8 (LPTETPLVS; epitope) | – | – | binding to IgE antibodies from patients, sequence comprising a region carboxy-terminally adjacent to the epitope: binding to IgE antibodies from patients |
| SEQ ID NO: 324: sequence comprising a region amino-terminally adjacent to epitope 2 (MFQMTIKKS; epitope) | binding to IgE antibodies from patients | – | – |
| SEQ ID NO: 353: sequence comprising a region amino-terminally adjacent to epitope 5 (CNIALKLLSP; epitope) | binding to IgE antibodies from patients | – | – |
| SEQ ID NO: 466: sequence comprising a region carboxy-terminally adjacent to epitope 19 (FNYSMPANCY; epitope) | – | – | binding to IgE antibodies from patients, sequence comprising a region carboxy-terminally adjacent to the epitope: binding to IgE antibodies from patients |
| SEQ ID NO: 409: sequence comprising a region amino-terminally adjacent to epitope 10 (LQQVMKTVVE; epitope) | binding to IgE antibodies from patients | – | – |
| SEQ ID NO: 569: region in epitope 34 (VKLYPEKDEP; epitope) | – | important for binding | – |
| SEQ ID NO: 366: region in epitope 6 (SPRTMFPSAI; epitope) | – | important for binding | – |
| SEQ ID NO: 407: region in epitope 9 (ELLQQ; epitope) | – | important for binding | – |
| SEQ ID NO: 380: sequence comprising a region carboxy-terminally adjacent to epitope 8 (ELPTETPLVS; epitope) | – | – | binding to IgE antibodies from patients, sequence comprising a region carboxy-terminally adjacent to the epitope: binding to IgE antibodies from patients |
| SEQ ID NO: 452: sequence comprising a region amino-terminally adjacent to epitope 17 (TNLTDSSKWK; epitope) | binding to IgE antibodies from patients | – | – |
| SEQ ID NO: 451: sequence comprising a region amino-terminally adjacent to epitope 17 (FVTNLTDSSK; epitope) | binding to IgE antibodies from patients | – | – |
| SEQ ID NO: 534: region in epitope 27 (GICGKYDAE; epitope) | – | important for binding | – |

Further lines, with some results ahead:

| binding to IgE antibodies from patients, sequence comprising a region amino-terminally adjacent to the epitope | region within the epitope important for binding to IgE antibodies from patients | Substance | further results |
| --- | --- | --- | --- |
| – | important for binding | SEQ ID NO: 512: region in epitope 22 (MPNGYLAKNA; epitope) | – |
| – | important for binding | SEQ ID NO: 449: region in epitope 16 (RKLPGDRATS; epitope) | – |
| – | important for binding | SEQ ID NO: 579: region in epitope 35 (VSKRVS; epitope) | – |
| – | important for binding | SEQ ID NO: 388: region in epitope 8 (KALQGWKEL; epitope) | – |
| binding to IgE antibodies from patients | – | SEQ ID NO: 604: sequence comprising a region amino-terminally adjacent to epitope 38 (LVNYSPTK; epitope) | – |
| – | important for binding | SEQ ID NO: 531: region in epitope 26 (GLLIS; epitope) | – |
| – | important for binding | SEQ ID NO: 455: region in epitope 17 (TDSSKWKLCA; epitope) | – |
| – | important for binding | SEQ ID NO: 544: region in epitope 27 (YDAEKK; epitope) | – |
| binding to IgE antibodies from patients | – | SEQ ID NO: 377: sequence comprising a region amino-terminally adjacent to epitope 8 (IKELGKALQG; epitope) | – |
| – | important for binding | SEQ ID NO: 500: region in epitope 21 (DKLYFDG; epitope) | – |
| binding to IgE antibodies from patients | – | SEQ ID NO: 583: sequence comprising a region amino-terminally adjacent to epitope 36 (DIFELGLDG; epitope) | – |
| binding to IgE antibodies from patients | – | SEQ ID NO: 517: sequence comprising a region amino-terminally adjacent to epitope 23 (APCRGACKLH; epitope) | – |
| binding to IgE antibodies from patients | – | SEQ ID NO: 576: sequence comprising a region amino-terminally adjacent to epitope 35 (YQVSKRVS; epitope) | – |
| – | important for binding | SEQ ID NO: 391: region in epitope 8 (GWKELPTET; epitope) | – |
| – | important for binding | SEQ ID NO: 440: region in epitope 15 (SSNSKSS; epitope) | – |
| – | important for binding | SEQ ID NO: 397: region in epitope 8 (KALQGWKELP; epitope) | – |
